For test [1], the system named is Magi1 PDZ3. Put plainly: IC50 (nM) | Magi1 PDZ3 | 0.625 nM | B01-87 | Bio-GGWFLDV (SEQ ID NO 686) | 15.62 nM. The method, then:
(§1) Table printed on a drawing sheet, Fig. 12
Head of the field: IC50 (nM) | Magi1 PDZ3 | 0.625 nM | B01-87 | Bio-GGWFLDV (SEQ ID NO 686) | 15.62 nM
(§2) The patent's description of the figure: FIG. 12. IC50 values indicating binding affinities of various peptides to PDZ domains
(§3) First copying reader's note: The first column (three lines per block: protein, accession, PDZ domain) is treated as one cell spanning its block; an empty ruled row above the IC50/SD head is left out; #### cells are spreadsheet overflow marks as printed; several heads and cells are cut off at the left by the print (ample, eptide No, EQ ID NO).
Where the first naming reader finds the target: head: IC50 (nM) | Magi1 PDZ3 | 0.625 nM | B01-87

In test [2] the target is T1, Erbin PDZ (Homo sapiens, UniProt Q96RT1).
T1 construct: made in house; host or cells: E. coli
T1 sequence (Q96RT1 1258-1412): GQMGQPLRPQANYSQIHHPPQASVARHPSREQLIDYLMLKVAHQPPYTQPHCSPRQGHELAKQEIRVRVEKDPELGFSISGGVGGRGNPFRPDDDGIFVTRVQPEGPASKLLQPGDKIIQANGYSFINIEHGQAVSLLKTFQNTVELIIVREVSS
Nature of the test: IC50 (nM) | Erbin PDZ | 2 nM | PDZ501 | Bio-Ac-GGWETWV (SEQ ID NO 687) | 37 nM. The method, then:
as §1, §2, §3
Where the first naming reader finds the target: head: IC50 (nM) | Erbin PDZ | 2 nM | PDZ501

Test [3] addresses T2, hZO1 PDZ1 (Homo sapiens, UniProt Q07157).
T2 construct: Human ZO1 (NM_003257) PDZ1; GST; made in house
Put plainly: IC50 (nM) | hZO1 PDZ1 | 5 nM | B01-88 | Bio-GGWRWTTWL (SEQ ID NO 684) | 36 nM. The method, then: as §1
Head of the field: IC50 (nM) | hZO1 PDZ1 | 5 nM | B01-88 | Bio-GGWRWTTWL (SEQ ID NO 684) | 36 nM
as §2, §3
Where the first naming reader finds the target: head: IC50 (nM) | hZO1 PDZ1 | 5 nM | B01-88

For test [4], the target named is ERBIN PDZ-GST fusion protein (aa. 1217-1371 of SEQ ID NO:201) (human) [GST: P08515]. Put plainly: competition ELISA: ERBIN PDZ-GST binding to immobilized biotin-WETWV. Background: An ELISA detects its analyte on a solid surface through an enzyme-linked reagent.
Chain of ERBIN PDZ-GST fusion protein (aa. 1217-1371 of SEQ ID NO:201) (human) [GST: P08515] (P08515 whole entry, the tested form may be a part): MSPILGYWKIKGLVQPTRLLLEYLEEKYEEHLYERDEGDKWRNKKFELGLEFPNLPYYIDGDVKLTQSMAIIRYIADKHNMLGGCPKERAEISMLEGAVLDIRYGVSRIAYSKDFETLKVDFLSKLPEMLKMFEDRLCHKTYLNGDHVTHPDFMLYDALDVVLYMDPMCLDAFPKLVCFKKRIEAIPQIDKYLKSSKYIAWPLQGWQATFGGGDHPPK
In test [5] the target is GST-MAGI-3 PDZ 2 (aa. 584-707 of SEQ ID NO:200) (human) [GST: P08515]. Nature of the test: competition ELISA: peptide blocks GST-PDZ binding to immobilized peptide.
Chain of GST-MAGI-3 PDZ 2 (aa. 584-707 of SEQ ID NO:200) (human) [GST: P08515] (P08515 whole entry, the tested form may be a part): as above
For test [6], the target named is ERBIN PDZ-GST fusion protein (aa. 1217-1371 of SEQ ID NO:201) (human, UniProt P08515 1-218 = GST). Put plainly: competition ELISA: ERBIN PDZ-GST binding to immobilized biotin-WETWV.
Chain of ERBIN PDZ-GST fusion protein (aa. 1217-1371 of SEQ ID NO:201) (P08515 whole entry, the tested form may be a part): as above

Where no end group is shown, it is not given here.

T2 sequence (Q07157 23-110): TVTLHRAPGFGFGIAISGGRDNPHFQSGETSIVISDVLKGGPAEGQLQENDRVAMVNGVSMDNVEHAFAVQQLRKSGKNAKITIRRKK

What is called IC50 is the concentration at which inhibition is half-maximal. Regarding “AWFDTDL [2 | 01-61, SEQ ID NO 641 AWFDTDL]”, the IC50 in test [1] is 18200 nM; in test [2], 25400 nM.

“Ac-ERIWFV [29 | 01-24, SEQ ID NO 668 NAC-ERIWFV]” came in with an IC50 in test [3] of 21400 nM.

For the molecule “Ac-FETDL [1 | 01-104, SEQ ID NO 640 N^AC-FETDL]”, the IC50 in test [1] was 91500 nM; in test [2], 101000 nM.

As for “Ac-FETWL [3 | 01-08, SEQ ID NO 642 N^AC-FETWL]”, the midpoint of inhibition in test [2], the IC50, lay at 3160 nM.

Consider “Ac-KETWL [20 | 01-05, SEQ ID NO 659 N^AC-KETWL]”, for which the half-inhibitory concentration (IC50) in test [2] turned out to be 19800 nM; in test [3], 12600 nM.

“Ac-KITWL [25 | 01-06, SEQ ID NO 664 N^AC-KITWL]” had an IC50 in test [3] of 2320 nM. This lies in the single-digit micromolar range.

Take “Ac-KSTWL [23 | 01-03, SEQ ID NO 662 N^AC-KSTWL]”: the 50% inhibitory concentration (IC50) in test [3] came out at 5310 nM.

In test [3], “Ac-KTSTSYV [14 | 01-97, SEQ ID NO 653 N^AC-KTSTSYV]” displayed an IC50 of 2030 nM.

On to “Ac-RETWL [22 | 01-02, SEQ ID NO 661 N^AC-RETWL]”, for which the concentration for half-maximal inhibition (IC50) in test [2] was 39700 nM; in test [3] it was 28600 nM.

Consider Ac-TWY (peptide), for which, in test [4], the half-inhibitory concentration (IC50) turned out to be 77.4 µM and the fold less potent than Ac-GWETWV stood at 81.5 fold.

“Ac-WELLI [38 | 01-21, SEQ ID NO 677 NAC-WELLI]” returned an IC50 in test [3] of 20100 nM.

Turning to Ac-WETNapV (peptide), in test [4], the IC50 was 0.6 µM and the fold less potent than Ac-WETWV was determined as 1.1 fold.

Regarding “Ac-WFLDA [42 | 01-22, SEQ ID NO 681 NAC-WFLDA]”, the results for the IC50 in test [1] and in test [3] were 410 ± 72 nM and 21800 nM, respectively.

For “Ac-WFLWI [34 | 01-12, SEQ ID NO 673 NAC-WFLWI]”, the 50% inhibitory concentration (IC50) is 34700 nM in test [1] and greater than 400000 nM in test [2].

“Ac-WGWTTWL [12 | 01-30, EQ ID NO 651 N^AC-WGWTTWL]”: the concentration for half-maximal inhibition (IC50) in test [2] turned out to be 35500 nM; in test [3] it was 47 ± 4 nM.

In the case of “Ac-WRHTTWL [11 | 01-29, EQ ID NO 650 N^AC-WRHTTWL]”, the 50% inhibitory concentration (IC50) in test [2] worked out at 52400 nM; in test [3], 35 ± 5 nM.

Consider “Ac-WRWTTWV [13 | 01-31, EQ ID NO 652 N^AC-WRWTTWV]”, for which the IC50 amounted to 32600 nM in test [1] and 789 ± 62 nM in test [2].

Ac-WV (peptide): in test [4], the IC50 was found to be 77.8 µM and the fold less potent than Ac-GWETWV stood at 78.7 fold.

The molecule “Ac-YRLNDYV [18 | 01-98, SEQ ID NO 657 N^AC-YRLNDYV]” displayed an IC50 in test [3] of 28600 nM.

With “Ac-YSLTGYV [15 | 01-94, SEQ ID NO 654 N^AC-YSLTGYV]”, the IC50 in test [3] was determined as 12400 nM.

Turning to “Ac-YSRSQYV [16 | 01-95, SEQ ID NO 655 N^AC-YSRSQYV]”, the concentration for half-maximal inhibition (IC50) in test [3] worked out at 4620 nM.

“EQ ID NO 648 N^AC-WRWTTWL (Ac-WRWTTWL) [9 | 01-103]”: the half-maximal inhibitory concentration (IC50) in test [1] came to 180 ± 59 nM.

Molecule “EQ ID NO 649 N^AC-YRWTTWL (Ac-YRWTTWL) [10 | 01-28]” displayed an IC50 in test [1] of 32600 nM.

With GCGCSWV (peptide), the half-inhibitory concentration (IC50) in test [5] turned out to be 2 µM.

Regarding H1N -TWV (peptide), in test [4], the IC50 turned out to be 105 µM and the fold less potent than H1N -GWETWV turned out to be 73.6 fold.

HTQITKV (peptide): the IC50 in test [5] came out at 200 µM.

In test [5], HTQITWV (peptide) yielded an IC50 of 0.3 µM. Against the preceding molecule, the IC50 is about 670-fold lower.

As to SEQ ID NO 671 NAC-WFLDI [32 | 01-14], the midpoint of inhibition in test [1], the IC50, lay at 408 ± 50 nM.

For H-GWETWV-OH [H1N-GWETWV], in test [4], the half-maximal inhibitory concentration (IC50) worked out at 1.4 µM and the fold less potent than H1N -GWETWV worked out at 1 fold.

As to Ac-GWETWV [Ac-GWETWV], in test [4], the 50% inhibitory concentration (IC50) was determined as 0.9 µM and the fold less potent than Ac-GWETWV was 1 fold.

As to Ac-ETWV [Ac-ETWV], in test [4], the 50% inhibitory concentration (IC50) was determined as 4.9 µM and the fold less potent than Ac-GWETWV is 5.1 fold.

With H-ETWV-OH [H1N -ETWV], in test [4], the 50% inhibitory concentration (IC50) was found to be 16.5 µM and the fold less potent than H1N -GWETWV worked out at 11.5 fold.

As to Ac-WEAWV [Ac-WEAWV], in test [6], the concentration for half-maximal inhibition (IC50) turned out to be 12.4 µM and the “fold less potent than Ac-WETWV” value is 25.3 fold.

For Ac-WETWV [Ac-WETWV], in test [4], the half-inhibitory concentration (IC50) was 0.5 µM, the fold less potent than Ac-GWETWV worked out at 0.5 fold and the fold less potent than Ac-WETWV amounted to 1 fold.

Turning to Ac-WATWV [Ac-WATWV], in test [6], the IC50 amounted to 14.8 µM and the “fold less potent than Ac-WETWV” value was 30.3 fold.

With Ac-AETWV [Ac-AETWV], in test [6], the half-maximal inhibitory concentration (IC50) worked out at 4 µM and the “fold less potent than Ac-WETWV” value was 8.2 fold.

As for H-WETWV-OH [H1N -WETWV], in test [4], the IC50 came to 0.2 µM and the fold less potent than H1N -GWETWV came to 0.2 fold.

(Values after patent US20030148264A1, “Phage displayed PDZ domain ligands” (GENENTECH, INC., priority 2001, published 2003).)
